Where two headings read alike, the source gives them in different places. Square brackets hold non-standard residues; d marks the D form. Peptide text beside a SMILES is read from it. Nva = CCC[C@H](N)C(=O)O
Columns and labels:
[1] = system: AdipoR1 extracellular loops; test: Screening of AdipoR1/peptide binding (ELISA plate, biotin-labeled loop peptides); details: preliminary, qualitative study; biotin-labeled loop fragments; data not shown
Text: (§1) The 66 unmodified adiponectin array peptides were individually dried down to wells of an ELISA plate, and tested for binding to biotin-labeled linear synthetic models of the 4 extracellular loops of AdipoR1. The receptor/peptide interaction was detected by horseradish-peroxidase conjugated streptavidin.

[2] = biological target: T1, AdipoR1 extracellular loops (Homo sapiens, UniProt Q96A54); test: as above; details: preliminary, qualitative study; biotin-labeled loop fragments; data not shown
T1 construct: biotin-labeled linear synthetic models of the 4 extracellular loops of AdipoR1; made in house; host or cells: chemical solid-phase peptide synthesis (Fmoc), no expression host
Text: as §1

[3] = system: MCF-7 breast cancer cells; test: Growth inhibition (cytostatic) screening in MCF-7 cells; assay type: cell-based, human
Protocol: Biological activity of the peptides was first assessed using MCF-7 breast cancer cells that are known to express AdipoR1 [38]. MCF-7 cell line was obtained from ATCC (Manassas, VA) and routinely grown in DMEM:F12 plus 5% calf serum (Cellgro Mediatech, Manassas, VA) at 37°C, 5% CO2. For screening experiments, MCF-7 cells were plated in 24-well plates at the concentration of 30,000 cells/well. After 12 h of culture in the growth medium, the cells were synchronized in serum-free medium (SFM) (DMEM:F12 supplemented with […] bovine serum albumin, 1 mM FeSO4 and 2 mM L-glutamine) for 24 h, and then shifted back to the full growth medium containing either gAd (Phoenix Secretomics, Burlingame, CA) at 50 ng/mL, individual peptides, or no test compounds. After 24 h, the cells were counted under the microscope with trypan-blue exclusion. Each experiment was performed in triplicate and repeated at least three times.
The effects of the lead active peptide 355 ([…]) on cell proliferation were tested in breast cancer cell lines (MCF-7, MDA-MB-231) and in glioblastoma cells (LN18), all obtained from ATCC and routinely cultured as described previously. The peptide was tested at 10 pM-100 μM concentrations under conditions described above under peptide screening.

[4] = In vivo toxicity in CBA/J mice; details: for Kidney weight / Liver weight / Spleen weight: CBA/J mice, day 5
Text: On day 5, the mice were sacrificed by CO2 inhalation. The potential peptide elimination organs: the livers, spleens and kidneys were removed and weighed.

[5] = Peptide stability in whole mouse blood; assay type: in vitro ADME
Protocol: Sixty μg of ADP 355 were dissolved in 100 μL water, and 10 μL aliquots were mixed with 100 μL of freshly drawn mouse blood. After 30 min of incubation at 37°C, blood cells were centrifuged at 10,000 × g. Fifty μL serum was mixed with 50 μL phosphate buffered saline pH 6.8 (PBS), and serum proteins were precipitated by addition of 45 μL aqueous 15% trichloroacetic acid (TCA) for 10 min at 4°C. After centrifugation at 12,000 × g, the supernatant was neutralized with 0.1 M aqueous sodium hydroxide and 0.5 μL of this solution was mixed with 0.5 μL α-cyano-4-hydroxycinnamic acid (4 mg/mL in 60% aqueous acetonitrile containing 0.1% TFA) as matrix on a sample plate. Analysis was performed using a MALDI time-of-flight tandem mass spectrometer (MALDI-TOF/TOF-MS, 4700 proteomic analyzer, Applied Biosystems, Weiterstadt, Germany). Additionally, the neutralized supernatant was loaded on a Jupiter C18 RP-HPLC column (4.6 mm internal diameter, 150 mm length, 5 μm particle size, 30 nm pore size) previously calibrated with known amounts of ADP 355 dissolved in PBS. Absorbance was measured at 214 nm.

binding to the other extracellular loops of AdipoR1 [1] | Compound | binding to the first extracellular loop of AdipoR1 [2] | biological activity in cell growth inhibition assays [3] | Kidney weight ([4]; 5 mg/kg bolus ip) [g] | Liver weight ([4]; 5 mg/kg bolus ip) [g] | Spleen weight ([4]; 5 mg/kg bolus ip) [g] | Kidney weight ([4]; 10 mg/kg bolus ip) [g] | Liver weight ([4]; 10 mg/kg bolus ip) [g] | Spleen weight ([4]; 10 mg/kg bolus ip) [g] | Kidney weight ([4]; 25 mg/kg bolus ip) [g] | Liver weight ([4]; 25 mg/kg bolus ip) [g] | Spleen weight ([4]; 25 mg/kg bolus ip) [g] | Kidney weight ([4]; 50 mg/kg bolus ip) [g] | Liver weight ([4]; 50 mg/kg bolus ip) [g] | Spleen weight ([4]; 50 mg/kg bolus ip) [g] | signs of systemic toxicity (tremor, head tilt, reduced activity and squinting) ([4]; healthy CBA/J mice, bolus ip up to 50 mg/kg, observed for 4 days) | stability in whole mouse blood after 30 min ([5]; freshly drawn whole mouse blood, 37°C, 30 min, 10 μL of 60 μg/100 μL peptide in 100 μL blood, TCA precipitation, MALDI-TOF/TOF-MS and C18 RP-HPLC (214 nm)) | stability in mouse blood or serum ([5]; mouse blood or serum, 37°C (abstract)) | biological activity in cell growth inhibition assays ([3]; listed as fragment 157-162)
not other loops | CC[C@H](C)[C@H](NC(=O)[C@@H](N)CC(N)=O)C(=O)N1CCC[C@H]1C(=O)NCC(=O)N[C@@H](CC(C)C)C(=O)N[C@@H](Cc1ccc(O)cc1)C(=O)N[C@@H](Cc1ccc(O)cc1)C(=O)N[C@@H](Cc1ccccc1)C(=O)N[C@@H](C)C(=O)N[C@@H](Cc1ccc(O)cc1)C(N)=O [ADP 25, H-Asn-Ile-Pro-Gly-Leu-Tyr-Tyr-Phe-Ala-Tyr-NH2] (H-NIPGLYYFAY-NH2) | bound the first extracellular loop of AdipoR1 | fully active |  |  |  |  |  |  |  |  |  |  |  |  |  |  |  | 
 | CCC[C@H](NC(=O)[C@@H]1CCCN1C(=O)[C@@H](NC(=O)[C@H](N)CC(N)=O)[C@@H](C)CC)C(=O)N[C@@H](CC(C)C)C(=O)N[C@@H](Cc1ccc(O)cc1)C(=O)N[C@H](CO)C(=O)N[C@@H](Cc1ccccc1)C(=O)N[C@@H](C)C(=O)N[C@H](CO)C(N)=O [ADP 355, H-DAsn-Ile-Pro-Nva-Leu-Tyr-DSer-Phe-Ala-DSer-NH2] (H-[dN]IP[Nva]LY[dS]FA[dS]-NH2) |  |  | 0.30 | 1.02 | 0.07 | 0.29 | 1.09 | 0.06 | 0.35 | 1.24 | 0.07 | 0.31 | 1.07 | 0.07 | no signs of systemic toxicity | without noticeable degradation | at least 30 min | 
 | CC(C)C[C@H](NC(=O)CNC(=O)[C@@H]1CCCN1)C(=O)N[C@@H](Cc1ccc(O)cc1)C(=O)N[C@@H](Cc1ccc(O)cc1)C(=O)N[C@@H](Cc1ccccc1)C(N)=O [Middle 6 of 25, H-Pro-Gly-Leu-Tyr-Tyr-Phe -NH2] (H-PGLYYF-NH2) |  | inactive |  |  |  |  |  |  |  |  |  |  |  |  |  |  |  | did not exhibit any biological activity

Reference: article PMC3198688, “Design and development of a peptide-based adiponectin receptor agonist for cancer treatment” (BMC Biotechnology, 2011)
